One test relates to MDA-MB-231. Nature of the test: Cytotoxicity against human MDA-MB-231 cells after 72 hrs by MTT assay. Format: functional, cell-based. Particulars: MDA-MB-231, 72 h.
Another test deals with Jurkat. Kind of test: Cytotoxicity against human Jurkat cells after 24 hrs by CellTitre-Blue assay. Format: functional, cell-based.
Test [1] can be described thus: Cytotoxicity against human KG1a cells after 24 hrs by CellTitre-Blue assay. The test is classed as functional, cell-based. Particulars: KG-1a.
Another test concerns HeLa. Kind of test: Cytotoxicity against human HeLa cells after 72 hrs by MTT assay. The test is classed as functional, cell-based.
The target in test [2] is Apoptosis regulator Bcl-2 (Homo sapiens, UniProt P10415). Kind of test: Competitive binding affinity to his-tagged Bcl-2 (unknown origin) after 1 hr by ELISA in presence of Bim peptide. A general note: ELISA stands for enzyme-linked immunosorbent assay.
Apoptosis regulator Bcl-2, sequence (P10415 whole entry): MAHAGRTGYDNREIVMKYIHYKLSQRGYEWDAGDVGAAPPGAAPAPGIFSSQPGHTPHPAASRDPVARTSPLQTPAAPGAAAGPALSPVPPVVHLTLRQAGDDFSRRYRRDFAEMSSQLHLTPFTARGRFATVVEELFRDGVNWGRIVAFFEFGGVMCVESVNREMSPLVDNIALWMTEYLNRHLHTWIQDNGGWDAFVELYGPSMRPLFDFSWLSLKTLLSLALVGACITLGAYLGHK

Turning to `COc1ccc(CSc2nnc(-c3c[nH]c4ccccc34)n2N)cc1`, the IC50 (usually the concentration that gives 50% inhibition) in the test with MDA-MB-231 is 1.7 µM; in the test with Jurkat it was more than 100 µM; in test [1] it was more than 100 µM; in the test on HeLa it was 0.75 µM.
On to `Cc1ccc(CSc2nnc(-c3c[nH]c4ccccc34)n2N)cc1`, for which the IC50 in the test with MDA-MB-231 is 10.5 µM; in the test on Jurkat, more than 100 µM; in test [1], more than 100 µM; in the test on HeLa, 5.38 µM.
Turning to `Nn1c(SCc2ccccc2)nnc1-c1c[nH]c2ccccc12`, the 50% inhibitory concentration (IC50) with MDA-MB-231 was 26.5 µM; with Jurkat, more than 100 µM; in test [1], 17.2 µM; in the test with HeLa it was 2.3 µM.
For `Nn1c(SCc2ccccc2[N+](=O)[O-])nnc1-c1c[nH]c2ccccc12`, in that order: 9.52 µM, more than 100 µM, 20.8 µM and 2.52 µM.
With `Nn1c(SCc2cccc([N+](=O)[O-])c2)nnc1-c1c[nH]c2ccccc12`, the IC50 in the test with MDA-MB-231 was 0.31 µM; in the test with Jurkat, more than 100 µM; in test [2] it was 1.43 µM; in test [1] it was 0.65 µM; in the test on HeLa, 0.4 µM.
As for `Nn1c(SCc2ccc([N+](=O)[O-])cc2)nnc1-c1c[nH]c2ccccc12`, the IC50 in the test on MDA-MB-231 is 0.74 µM; with Jurkat, more than 100 µM; in test [1] it was 6.9 µM; in the test on HeLa, 0.25 µM.
For `Nn1c(SCc2ccc(F)cc2)nnc1-c1c[nH]c2ccccc12`, in that order: 1.35 µM, more than 100 µM, 13.2 µM and 0.29 µM.
As for `Nn1c(SCc2ccc(Br)cc2)nnc1-c1c[nH]c2ccccc12`, the IC50 in the test with MDA-MB-231 was 71.4 µM; with Jurkat, more than 100 µM; in test [1], 55.8 µM; in the test with HeLa, 8 µM.
For `COc1cccc(CSc2nnc(-c3c[nH]c4ccccc34)n2N)c1`, in that order: 15.6 µM, more than 100 µM, 12.9 µM and 1.73 µM.

Source of the values: ChEMBL document CHEMBL2375247, “Synthesis and evaluation of 3-(benzylthio)-5-(1H-indol-3-yl)-1,2,4-triazol-4-amines as Bcl-2 inhibitory anticancer agents” (Bioorg Med Chem Lett, 2013).
